From patent US9409943B2 (Bristol-Myers Squibb Company, priority 2012, dated 2016)
Where two headings read alike, the source gives them in different places.

Key:
HCV GT1a(H77) replicon = test: HCV replicon luciferase reporter assay, genotype 1a; type: cell-based, HCV genotype 1a; conditions: Hepatitis C virus, 72 h, HUH-7 cells, 3 days incubation
Text: A stable HCV GT1a(H77) replicon luciferase reporter cell line (Yanagi M, Purcell R H, Emerson S U, et al. Transcripts from a single full-length cDNA clone of hepatitis C virus are infectious when directly transfected into the liver of a chimpanzee. Proc Natl Acad Sci USA 1997; 94(16):8738-8743) was generated as described previously for the genotype 1b(Con1) replicon luciferase cell line. The replicon construct was modified by introducing mutations into the genes encoding the NS3 helicase domain (proline replaced by leucine at position 1496) and NS5A (serine to isoleucine at position 2204) to improve replication in cell culture.
(§1) HCV replicon luciferase assays were developed to monitor the inhibitory effects of compounds described in the disclosure on HCV genotypes 1a and 1b viral replication. HUH-7 cells, constitutively expressing the HCV replicon, were grown in Dulbecco's Modified Eagle Media (DMEM) (Gibco-BRL) containing 10% Fetal calf serum (FCS) (Sigma) and 1 mg/mL G418 (Gibco-BRL). Compounds were serially diluted 3 folds in DMSO for a twenty-point titration and subsequently transferred to sterile 384-well tissue-culture treated plates (Corning cat #3571). The plates were then seeded with 50 μL of cells at a density of 3.0×10^3 cells/well in DMEM containing 4% FCS (final DMSO concentration at 0.5%). After 3 days incubation at 37° C., cells were analyzed for Renilla Luciferase activity using the EnduRen as substrate (Promega cat #E6485). The EnduRen substrate was diluted in DMEM and then added to the plates to a final concentration of 7.5 μM. The plates were incubated for 2 hrs at 37° C. and then read immediately for 30 seconds with Viewlux Imager (PerkinElmer) using a luminescence program. To assess cytotoxicity of compounds, CC50 values were generated by multiplexing the EnduRen-containing plates with Cell Titer-Blue (Promega, cat # G8082). Cell-Titer Blue (3 μL) was added to each well and incubated for 8 hrs at 37° C. The fluorescence signal from each well was read, with an excitation wavelength at 525/10 nm and an emission wavelength of 598/10 nm, using the Viewlux Imager.
(§2) The EC50 values for compounds were calculated by using a four-parameter logistic equation: y=A+((B−A)/(1+((C/x)^D))), where A and B denotes minimal and maximal % inhibition, respectively, C is the EC50, D is the hill slope and x represents compound concentration.

HCV GT1b(Con1) replicon = test: HCV replicon luciferase reporter assay, genotype 1b; type: cell-based, HCV genotype 1b; conditions: Hepatitis C virus, 72 h, HUH-7 cells, 3 days incubation
Text: An HCV GT1b(Con1) replicon cell system was established as described by Lohmann V, Korner F, Koch J, Herian U, Theilmann L, Bartenschlager R., Science 285(5424):110-3 (1999) and modified to introduce a luciferase reporter (Krieger N, Lohmann V, and Bartenschlager R, J. Virol. 75(10):4614-4624 (2001)). cDNA encoding a humanized form of the Renilla luciferase gene, and a linker sequence fused directly to the 3′-end of the luciferase gene were introduced into the replicon construct using an Asc1 restriction site located in core, directly upstream of the neomycin marker gene. The adaptive mutation at position 1179 (serine to isoleucine) was also introduced (Blight K J, Kolykhalov, A A, Rice, C M, Science 290(5498):1972-1974). A stable cell line constitutively expressing this HCV replicon construct was generated by first linearizing plasmid DNAs with ScaI. RNA transcripts were synthesized in vitro using the T7 MegaScript transcription kit (Ambion, Austin, Tex.) according to manufacturer's directions. In vitro transcripts of the cDNA were transfected into the human hepatoma cell line, HUH-7. […] Resulting cell lines were characterized for positive and negative strand RNA production and protein production over time.
as §1, §2

`C[C@@H]1CC/C=C\[C@@H]2C[C@@]2(C(=O)NS(=O)(=O)C2(C)CC2)NC(=O)[C@@H]2C[C@@H](OC(=O)Nc3ccc(F)cc3)CN2C(=O)[C@@H](NC(=O)OC(C)(C)C)[C@H](C)C1` [Compound 1304] gave an EC50 (HCV GT1a(H77) replicon; read-out: LE_1a (EC50)) of 62.5 nM, an EC50 (HCV GT1a(H77) replicon; read-out: LE_1a (EC50, range)) of 35 to 62.5 nM and an EC50 (HCV GT1b(Con1) replicon; read-out: LE_1b (EC50)) of 20.6 nM. It also gave an EC50 (HCV GT1b(Con1) replicon; read-out: LE_1b (EC50, range)) of 5.01 to 35 nM.
`Cc1cc(C)c(NC(=O)O[C@@H]2C[C@H]3C(=O)N[C@]4(C(=O)NS(=O)(=O)C5(C)CC5)C[C@H]4/C=C\CC[C@@H](C)C[C@@H](C)[C@H](NC(=O)OC(C)(C)C)C(=O)N3C2)c(Cl)c1` [Compound 1306] showed an EC50 (HCV GT1a(H77) replicon; read-out: LE_1a (EC50, range)) of 5.01 to 35 nM and an EC50 (HCV GT1b(Con1) replicon; read-out: LE_1b (EC50, range)) of 5.01 to 35 nM.
In the case of `C[C@@H]1CC/C=C\[C@@H]2C[C@@]2(C(=O)NS(=O)(=O)C2(C)CC2)NC(=O)[C@@H]2C[C@@H](OC(=O)Nc3ccccc3C(F)(F)F)CN2C(=O)[C@@H](NC(=O)OC(C)(C)C(F)(F)F)[C@H](C)C1` [Compound 1307], the EC50 (HCV GT1a(H77) replicon; read-out: LE_1a (EC50, range)) is reported as 1.01 to 5 nM and the EC50 (HCV GT1b(Con1) replicon; read-out: LE_1b (EC50, range)) is reported as 1.01 to 5 nM.
`C[C@@H]1CC/C=C\[C@@H]2C[C@@]2(C(=O)NS(=O)(=O)C2(C)CC2)NC(=O)[C@@H]2C[C@@H](OC(=O)Nc3ccc(F)cc3)CN2C(=O)[C@@H](NC(=O)OC(C)(C)C(F)(F)F)[C@H](C)C1` [Compound 1309] showed an EC50 (HCV GT1a(H77) replicon; read-out: LE_1a (EC50, range)) of 35 to 62.5 nM and an EC50 (HCV GT1b(Con1) replicon; read-out: LE_1b (EC50, range)) of 5.01 to 35 nM.
Work on `Cc1cc(C)c(NC(=O)O[C@@H]2C[C@H]3C(=O)N[C@]4(C(=O)NS(=O)(=O)C5(C)CC5)C[C@H]4/C=C\CC[C@@H](C)C[C@@H](C)[C@H](NC(=O)OC(C)(C)C(F)(F)F)C(=O)N3C2)c(Cl)c1` [Compound 1311] yielded an EC50 (HCV GT1a(H77) replicon; read-out: LE_1a (EC50, range)) of 35 to 62.5 nM and an EC50 (HCV GT1b(Con1) replicon; read-out: LE_1b (EC50, range)) of 5.01 to 35 nM.
With `CC[C@@H]1C[C@@H](C)CC/C=C\[C@@H]2C[C@@]2(C(=O)NS(=O)(=O)C2(C)CC2)NC(=O)[C@@H]2C[C@@H](OC(=O)N3Cc4cccc(F)c4C3)CN2C(=O)[C@H]1NC(=O)OC(C)(C)C` [Compound 1312, (2R,6S,7R,9S,13aS,14aR,16aS,Z)-6-((tert-butoxycarbonyl)amino)-7-ethyl-9-methyl-14a-(((1-methylcyclopropyl)sulfonyl)carbamoyl)-5,16-dioxo-1,2,3,5,6,7,8,9,10,11,13a,14,14a,15,16,16a-hexadecahydrocyclopropa[e]pyrrolo[1,2-a][1,4]diazacyclopentadecin-2-yl 4-fluoroisoindoline-2-carboxylate] the EC50 (HCV GT1a(H77) replicon; read-out: LE_1a (EC50, range)) was 5.01 to 35 nM and the EC50 (HCV GT1b(Con1) replicon; read-out: LE_1b (EC50, range)) was 1.01 to 5 nM.
Work on `CC[C@@H]1C[C@H](C)CC/C=C\[C@@H]2C[C@@]2(C(=O)NS(=O)(=O)C2(C)CC2)NC(=O)[C@@H]2C[C@@H](OC(=O)N3Cc4cccc(F)c4C3)CN2C(=O)[C@H]1NC(=O)OC(C)(C)C` [Compound 1313, (2R,6S,7R,9R,13aS,14aR,16aS,Z)-6-((tert-butoxycarbonyl)amino)-7-ethyl-9-methyl-14a-(((1-methylcyclopropyl)sulfonyl)carbamoyl)-5,16-dioxo-1,2,3,5,6,7,8,9,10,11,13a,14,14a,15,16,16a-hexadecahydrocyclopropa[e]pyrrolo[1,2-a][1,4]diazacyclopentadecin-2-yl 4-fluoroisoindoline-2-carboxylate] yielded an EC50 (HCV GT1a(H77) replicon; read-out: LE_1a (EC50, range)) of 1.01 to 5 nM and an EC50 (HCV GT1b(Con1) replicon; read-out: LE_1b (EC50, range)) of 1.01 to 5 nM.
Work on `C[C@H]1CC/C=C\[C@@H]2C[C@@]2(C(=O)NS(=O)(=O)C2(C)CC2)NC(=O)[C@@H]2C[C@@H](OC(=O)N3Cc4cccc(F)c4C3)CN2C(=O)[C@@H](NC(=O)OC(C)(C)C)[C@H](C)C1` [Compound 1314, (2R,6S,7R,9S,13aS,14aR,16aS,Z)-6-((tert-butoxycarbonyl)amino)-7,9-dimethyl-14a-(((1-methylcyclopropyl)sulfonyl)carbamoyl)-5,16-dioxo-1,2,3,5,6,7,8,9,10,11,13a,14,14a,15,16,16a-hexadecahydrocyclopropa[e]pyrrolo[1,2-a][1,4]diazacyclopentadecin-2-yl 4-fluoroisoindoline-2-carboxylate] yielded an EC50 (HCV GT1a(H77) replicon; read-out: LE_1a (EC50, range)) of 5.01 to 35 nM and an EC50 (HCV GT1b(Con1) replicon; read-out: LE_1b (EC50, range)) of 1.01 to 5 nM.
`C[C@@H]1CC/C=C\[C@@H]2C[C@@]2(C(=O)NS(=O)(=O)C2(C)CC2)NC(=O)[C@@H]2C[C@@H](OC(=O)N3Cc4cccc(F)c4C3)CN2C(=O)[C@@H](NC(=O)OC(C)(C)C)[C@H](C)C1` [Compound 1315, (2R,6S,7R,9R,13aS,14aR,16aS,Z)-6-((tert-butoxycarbonyl)amino)-7,9-dimethyl-14a-(((1-methylcyclopropyl)sulfonyl)carbamoyl)-5,16-dioxo-1,2,3,5,6,7,8,9,10,11,13a,14,14a,15,16,16a-hexadecahydrocyclopropa[e]pyrrolo[1,2-a][1,4]diazacyclopentadecin-2-yl 4-fluoroisoindoline-2-carboxylate] gave an EC50 (HCV GT1a(H77) replicon; read-out: LE_1a (EC50)) of 0.96 nM, an EC50 (HCV GT1a(H77) replicon; read-out: LE_1a (EC50, range)) of 0.51 to 1 nM and an EC50 (HCV GT1b(Con1) replicon; read-out: LE_1b (EC50)) of 0.33 nM. It also gave an EC50 (HCV GT1b(Con1) replicon; read-out: LE_1b (EC50, range)) of 0.1 to 0.5 nM.
